Test results: patent US10683334B2 (INDIANA UNIVERSITY RESEARCH AND TECHNOLOGY CORPORATION, priority 2016, dated 2020)
Square brackets hold non-standard residues; d marks the D form. Peptide text beside a SMILES is read from it. Aib = CC(C)(N)C(=O)O

Key:
hGLP-1R = hGLP-1R (Homo sapiens, UniProt P43220); assay: cAMP luciferase reporter assay, activity at the GLP-1 receptor (Table 3)
[1] = Thioflavin-T fluorescence assay (fibrillation/aggregation); type: physicochemical
Method: The Thioflavin T (ThT) Assay measures changes of in fluorescence intensity of ThT upon binding to amyloid fibrils. The enhanced fluorescence can be observed by fluorescence microscopy or by fluorescent spectroscopy. The spectroscopic assay is commonly used to monitor fibrilization over time, but the assay is not strictly quantitative and differences in binding have been observed for samples after lyophilization.
Prepare a ThT stock solution by adding 8 mg ThT to 10 mL phosphate buffer (10 mM phosphate, 150 mM NaCl, pH 7.0) and filter through a 0.2 μm syringe filter. This stock solution should be stored in the dark and is stable for about one week.
Dilute the stock solution into the phosphate buffer (1 mL ThT stock to 50 mL buffer) on the day of analysis to generate the working solution.
Add an aliquot of untreated protein solution (5-10 μL) to the cuvette, stir for 1 min, and measure the intensity over 60 s. This serves as the control sample. […]
Lyophilized peptides were dissolved in appropriate buffer at concentration ˜8-9 mg/mL (1-5 in 0.1N hydrochloric acid; 7, 9 and 11 in 50 mM Sodium Phosphate, 150 mM of sodium chloride, pH7.4). Exact concentration was calculated based on UV absorbance at λ=280 nm and all samples were dissolved further down to equal concentration of 5 mg/mL. […] Fibrillation was measured according to modified Thioflavin-T fluorescence assay protocol. […]

glucagon receptor = glucagon receptor (Homo sapiens, UniProt P47871); assay: Luciferase-based glucagon assay (cAMP reporter, HEK293 cells)
Method: At the end of the incubation 100 microliters of LucLite luminescence substrate reagent (Perkin-Elmer, Wellesley, Mass.) were added to each well. […] The luminescent light output indicates activation of the luciferase reporter gene, which in turn is a measure of the activation of the receptor.

[2] = tested on: insulin induced hypoglycemia in diabetic pigs; assay: Pig study: reversal of insulin induced hypoglycemia; type: in vivo, Yucatan miniature swine; conditions: insulin detemir 0.5 U/kg s.c. at 0 min, peptide 10 nmoles/kg at 240 min
Method: Male diabetic Yucatan miniature swine (4 animals/group) were fed and administered NPH insulin at 8:00 AM and at 12 h prior to the initiation of the study, then fasted until the completion of the final blood glucose measurements. Insulin NPH doses were adjusted based on glucose levels and the animals were randomized to achieve balanced glucose levels across groups. […] Blood glucose was measured at −5, 0 (Pre-Dose), 30, 60, 120, 240, 245, 250, 260, 280, 300, 330, 360 and 480 minutes using a handheld glucometer. The same instrument was used for all animals and two readings were taken per time point to insure consistency. The statistical analysis of the results obtained in the in vivo experiments was performed using Prism 6.0h (GraphPad Software, Calif.) applying regular two-way ANOVA followed by Sidak multiple comparison test between the two treatments. […] The results are presented as means±SEM of four replicates per group.

physchem = assay: physchem
Method: 1 or 5 mg of pre-lyophilized peptide in 2 mL Eppendorf tube was treated with 200-400 uL of phosphate buffer (PBS: 50 mM sodium phosphate, 150 mM of sodium chloride, pH7.4). Samples were then vortexed and sonicated for 10 min then equilibrated at RT for 1H, and then centrifuged at 10 krpms for 10 min Concentration of the peptides in obtained supernatant was determined by measuring UV absorbance at λ=280 nm. […] Concentration in aliquots was reassessed as previously with UV absorbance. Change in peptide concentration was evaluated after 48 h and 7 days of storage at 4° C.

Chain of glucagon receptor (P47871 26-477): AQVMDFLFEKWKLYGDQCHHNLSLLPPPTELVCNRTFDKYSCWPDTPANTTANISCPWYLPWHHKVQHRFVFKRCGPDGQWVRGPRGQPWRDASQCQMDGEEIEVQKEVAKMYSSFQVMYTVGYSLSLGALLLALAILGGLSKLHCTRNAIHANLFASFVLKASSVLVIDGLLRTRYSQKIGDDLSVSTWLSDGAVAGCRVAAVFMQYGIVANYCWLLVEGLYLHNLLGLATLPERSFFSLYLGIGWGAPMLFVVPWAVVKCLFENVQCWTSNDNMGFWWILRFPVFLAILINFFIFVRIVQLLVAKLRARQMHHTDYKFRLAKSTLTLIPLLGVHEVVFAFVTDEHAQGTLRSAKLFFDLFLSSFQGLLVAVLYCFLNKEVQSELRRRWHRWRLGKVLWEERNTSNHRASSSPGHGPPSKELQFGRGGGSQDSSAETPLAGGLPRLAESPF
Chain of hGLP-1R (P43220 24-463): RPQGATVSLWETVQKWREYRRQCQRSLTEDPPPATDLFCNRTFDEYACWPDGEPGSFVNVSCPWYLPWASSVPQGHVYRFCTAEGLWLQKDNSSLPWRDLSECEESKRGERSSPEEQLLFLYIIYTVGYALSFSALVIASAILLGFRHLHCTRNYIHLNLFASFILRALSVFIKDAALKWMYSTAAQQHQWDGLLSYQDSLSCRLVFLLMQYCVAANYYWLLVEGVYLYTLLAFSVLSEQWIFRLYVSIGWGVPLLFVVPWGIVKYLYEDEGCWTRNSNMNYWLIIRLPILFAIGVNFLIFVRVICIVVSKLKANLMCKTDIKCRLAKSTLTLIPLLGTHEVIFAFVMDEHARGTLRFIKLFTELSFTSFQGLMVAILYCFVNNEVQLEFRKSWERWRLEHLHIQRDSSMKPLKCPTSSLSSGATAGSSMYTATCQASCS

EC50 (hGLP-1R) [nM]	SMILES	resistance to fibrillation (thioflavin-T fluorescence, FIG. 2) ([1]; 5 mg/mL, 37° C. 48H without agitation, then 40° C. 48H with agitation)	stability / resistance to fibrillation (ThT assay, FIG. 8) ([1]; 45 hours at 37° C., pH 7.0 in phosphate buffer)	in vitro efficacy / potency (in words) (glucagon receptor; luciferase-based glucagon assay)	EC50 (glucagon receptor; read-out: EC50 [nM] (SDV), luciferase-based glucagon assay, SDV in brackets)	% bioactivity of GCG (glucagon receptor; relative to native glucagon) [%]	reversal of insulin induced hypoglycemia (blood glucose) [2]	solubility (physchem; pH 7) [µg/mL]	solubility at 1 h (physchem; pH 7.4) [µg/mL]
> 10	CSCC[C@H](NC(=O)[C@H](CC(C)C)NC(=O)[C@H](Cc1c[nH]c2ccccc12)NC(=O)[C@H](CCC(N)=O)NC(=O)[C@@H](NC(=O)[C@H](Cc1ccccc1)NC(=O)[C@H](CC(=O)O)NC(=O)[C@@H](CCC(N)=O)NC(=O)[C@H](C)NC(=O)[C@H](CCCNC(=N)N)NC(=O)[C@H](CCCNC(=N)N)NC(=O)C(C)(C)NC(=O)[C@H](CC(=O)O)NC(=O)[C@H](CC(C)C)NC(=O)[C@H](Cc1ccc(O)cc1)NC(=O)[C@H](CCCCN)NC(=O)[C@H](CO)NC(=O)[C@H](Cc1ccc(O)cc1)NC(=O)[C@H](CC(=O)O)NC(=O)[C@H](CO)NC(=O)[C@@H](NC(=O)[C@H](Cc1ccccc1)NC(=O)[C@@H](NC(=O)CNC(=O)[C@H](CCC(N)=O)NC(=O)[C@H](CO)NC(=O)[C@@H](N)Cc1c[nH]cn1)[C@@H](C)O)[C@@H](C)O)C(C)C)C(=O)N[C@@H](CC(=O)O)C(=O)N[C@@H](CCC(=O)O)C(=O)O [SEQ ID NO: 981, Aib16, q20, D28, E29] (H-HSQGTFTSDYSKYLD[Aib]RRA[dQ]DFVQWLMDE-OH; N-terminus and C-terminus assumed)								
> 10	CSCC[C@H](NC(=O)[C@H](CC(C)C)NC(=O)[C@H](Cc1c[nH]c2ccccc12)NC(=O)[C@H](CCC(N)=O)NC(=O)[C@@H](NC(=O)[C@H](Cc1ccccc1)NC(=O)[C@H](CC(=O)O)NC(=O)[C@@H](CCC(N)=O)NC(=O)[C@H](C)NC(=O)[C@H](CCCNC(=N)N)NC(=O)[C@H](CCCNC(=N)N)NC(=O)C(C)(C)NC(=O)[C@H](CC(=O)O)NC(=O)[C@H](CC(C)C)NC(=O)[C@H](Cc1ccc(O)cc1)NC(=O)[C@H](CCCCN)NC(=O)[C@H](CO)NC(=O)[C@H](Cc1cccnc1)NC(=O)[C@H](CC(=O)O)NC(=O)[C@H](CO)NC(=O)[C@@H](NC(=O)[C@H](Cc1ccccc1)NC(=O)[C@@H](NC(=O)CNC(=O)[C@H](CCC(N)=O)NC(=O)[C@H](CO)NC(=O)[C@@H](N)Cc1c[nH]cn1)[C@@H](C)O)[C@@H](C)O)C(C)C)C(=O)N[C@@H](CC(N)=O)C(=O)N[C@H](C(=O)O)[C@@H](C)O [SEQ ID NO: 971, 3-Pal10, Aib16, q20]								
	CSCC[C@H](NC(=O)[C@H](CC(C)C)NC(=O)[C@H](Cc1c[nH]c2ccccc12)NC(=O)[C@H](CCC(N)=O)NC(=O)[C@@H](NC(=O)[C@H](Cc1ccccc1)NC(=O)[C@H](CC(=O)O)NC(=O)[C@H](CCC(N)=O)NC(=O)[C@H](C)NC(=O)[C@H](CCCNC(=N)N)NC(=O)[C@H](CCCNC(=N)N)NC(=O)C(C)(C)NC(=O)[C@H](CC(=O)O)NC(=O)[C@H](CC(C)C)NC(=O)[C@H](Cc1cccnc1)NC(=O)[C@H](CCCCN)NC(=O)[C@H](CO)NC(=O)[C@H](Cc1cccnc1)NC(=O)[C@H](CC(=O)O)NC(=O)[C@H](CO)NC(=O)[C@@H](NC(=O)[C@H](Cc1cccnc1)NC(=O)[C@@H](NC(=O)CNC(=O)[C@H](CCC(N)=O)NC(=O)[C@H](CO)NC(=O)[C@@H](N)Cc1cnc[nH]1)[C@@H](C)O)[C@@H](C)O)C(C)C)C(=O)N[C@@H](CC(N)=O)C(=O)N[C@H](C(=O)O)[C@@H](C)O [Compound 9, HSQGTXTSDXSKXLDZRRAQDFVQWLMNT]	resistant to fibrillation	showed stability	fully potent	0.0714	28	reverse insulin induced hypoglycemia	> 10000	> 10000
